Experimental data: patent US5852210A, “Cinnamic acid derivatives” (G. D. Searle & Co., priority 1997, dated 1998)
Counter-ions that a name gives are not always drawn.

Legend:
[1] = molecular target: T1, Human fibrinogen receptor (αIIb β3) (Homo sapiens, UniProt P05106+P08514); experiment: Purified IIb/IIIa receptor assay (solid phase receptor assay); details: inhibition of binding of biotinylated human vitronectin (1 nM) to purified receptor; Table I
T1 construct: Human fibrinogen receptor (αIIb β3) was purified from outdated platelets; from tissue; host or cells: human outdated platelets
T1 sequence (P08514 32-887 limits assumed): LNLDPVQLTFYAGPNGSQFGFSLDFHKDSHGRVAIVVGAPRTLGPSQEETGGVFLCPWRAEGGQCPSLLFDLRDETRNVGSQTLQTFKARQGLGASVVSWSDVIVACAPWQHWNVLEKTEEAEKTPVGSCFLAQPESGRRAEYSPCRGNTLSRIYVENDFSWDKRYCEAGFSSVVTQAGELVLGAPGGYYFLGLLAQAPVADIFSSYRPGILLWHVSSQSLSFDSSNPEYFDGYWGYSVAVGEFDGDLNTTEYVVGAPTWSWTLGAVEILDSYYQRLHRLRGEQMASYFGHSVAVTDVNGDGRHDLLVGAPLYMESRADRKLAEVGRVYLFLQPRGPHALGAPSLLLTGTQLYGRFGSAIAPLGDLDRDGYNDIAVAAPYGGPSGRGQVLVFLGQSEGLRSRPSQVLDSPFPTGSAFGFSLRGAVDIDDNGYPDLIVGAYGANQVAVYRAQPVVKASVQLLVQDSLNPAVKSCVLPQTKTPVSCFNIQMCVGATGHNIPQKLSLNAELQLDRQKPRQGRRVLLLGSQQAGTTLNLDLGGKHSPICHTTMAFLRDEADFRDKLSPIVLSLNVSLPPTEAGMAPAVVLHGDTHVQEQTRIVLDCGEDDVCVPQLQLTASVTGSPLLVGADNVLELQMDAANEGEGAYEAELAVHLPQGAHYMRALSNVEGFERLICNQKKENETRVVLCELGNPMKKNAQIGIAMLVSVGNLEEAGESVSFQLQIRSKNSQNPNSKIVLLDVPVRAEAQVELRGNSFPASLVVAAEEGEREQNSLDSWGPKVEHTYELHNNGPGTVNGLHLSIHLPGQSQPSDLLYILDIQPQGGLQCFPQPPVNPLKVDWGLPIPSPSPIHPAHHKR
T1 sequence (P08514 891-1039 limits assumed): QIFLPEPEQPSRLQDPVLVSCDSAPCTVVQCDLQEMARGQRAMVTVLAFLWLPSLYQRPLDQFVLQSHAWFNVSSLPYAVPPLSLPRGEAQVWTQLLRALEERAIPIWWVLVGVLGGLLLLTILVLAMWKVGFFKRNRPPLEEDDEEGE
T1 sequence (P05106 27-788): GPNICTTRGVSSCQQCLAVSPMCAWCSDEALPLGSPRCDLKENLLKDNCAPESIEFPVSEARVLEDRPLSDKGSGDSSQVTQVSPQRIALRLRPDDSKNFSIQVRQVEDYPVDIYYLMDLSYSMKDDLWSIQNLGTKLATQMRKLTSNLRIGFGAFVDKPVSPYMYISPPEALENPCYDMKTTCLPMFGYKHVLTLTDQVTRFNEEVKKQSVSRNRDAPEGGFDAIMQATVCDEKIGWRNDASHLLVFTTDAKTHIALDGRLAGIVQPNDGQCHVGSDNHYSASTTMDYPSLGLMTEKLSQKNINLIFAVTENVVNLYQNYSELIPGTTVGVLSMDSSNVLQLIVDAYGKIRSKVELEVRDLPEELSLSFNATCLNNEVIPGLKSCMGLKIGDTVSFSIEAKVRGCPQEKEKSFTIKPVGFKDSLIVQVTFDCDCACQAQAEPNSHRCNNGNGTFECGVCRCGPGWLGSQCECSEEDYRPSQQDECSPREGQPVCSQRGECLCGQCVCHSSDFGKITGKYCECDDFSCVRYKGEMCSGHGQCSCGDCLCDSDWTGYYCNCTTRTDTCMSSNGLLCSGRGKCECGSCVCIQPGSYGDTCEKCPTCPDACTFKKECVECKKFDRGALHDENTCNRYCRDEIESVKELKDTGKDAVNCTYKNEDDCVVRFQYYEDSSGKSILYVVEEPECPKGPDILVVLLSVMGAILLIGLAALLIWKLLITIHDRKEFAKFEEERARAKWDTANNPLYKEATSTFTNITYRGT
Method in brief: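 Platelet-purified αIIbβ3 (100 ng/well) coated overnight at 4 °C, then competed 2 h at room temperature against 1 nM biotinylated human vitronectin in TBS with 1.0 mM Ca/Mg/Mn, pH 7.4, 1% BSA; top compound 1.0×10^-4 M. Bound ligand detected by HRP anti-biotin, A450, normalized to maximum binding, four-parameter fit.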

[2] = molecular target: T2, Human vitronectin receptor (αv β3) (Homo sapiens, UniProt P05106+P06756); experiment: Vitronectin adhesion assay (solid phase receptor assay, αvβ3); assay type: binding; details: inhibition of binding of biotinylated human vitronectin (1 nM) to purified receptor; Table I; read-out: AvB3 IC50
T2 construct: Human vitronectin receptor (αv β3) was purified from human placenta; from tissue; host or cells: human placenta
T2 sequence (P06756 31-889 limits assumed): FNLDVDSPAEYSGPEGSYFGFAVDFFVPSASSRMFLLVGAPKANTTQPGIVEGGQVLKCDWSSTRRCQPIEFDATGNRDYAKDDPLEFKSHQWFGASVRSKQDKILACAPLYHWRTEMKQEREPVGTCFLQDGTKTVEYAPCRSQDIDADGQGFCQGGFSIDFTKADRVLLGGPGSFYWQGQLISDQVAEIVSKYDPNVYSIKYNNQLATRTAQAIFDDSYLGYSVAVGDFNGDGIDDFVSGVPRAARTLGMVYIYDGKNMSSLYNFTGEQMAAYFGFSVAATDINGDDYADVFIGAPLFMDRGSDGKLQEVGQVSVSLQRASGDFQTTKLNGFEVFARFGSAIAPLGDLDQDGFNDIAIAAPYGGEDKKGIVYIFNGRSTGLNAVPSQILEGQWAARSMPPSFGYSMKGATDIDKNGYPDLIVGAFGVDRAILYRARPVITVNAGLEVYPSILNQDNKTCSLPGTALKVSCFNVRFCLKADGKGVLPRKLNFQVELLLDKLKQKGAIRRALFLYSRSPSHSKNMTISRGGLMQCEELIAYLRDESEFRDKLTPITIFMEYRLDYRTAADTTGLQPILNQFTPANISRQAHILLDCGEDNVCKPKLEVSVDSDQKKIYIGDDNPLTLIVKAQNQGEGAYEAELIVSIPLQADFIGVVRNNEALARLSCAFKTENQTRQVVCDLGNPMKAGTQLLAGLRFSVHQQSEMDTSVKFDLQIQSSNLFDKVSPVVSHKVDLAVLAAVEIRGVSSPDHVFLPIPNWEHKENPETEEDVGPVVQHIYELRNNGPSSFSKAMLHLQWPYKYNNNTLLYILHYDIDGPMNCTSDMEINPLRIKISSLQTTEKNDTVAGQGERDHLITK
T2 sequence (P06756 891-1048 limits assumed): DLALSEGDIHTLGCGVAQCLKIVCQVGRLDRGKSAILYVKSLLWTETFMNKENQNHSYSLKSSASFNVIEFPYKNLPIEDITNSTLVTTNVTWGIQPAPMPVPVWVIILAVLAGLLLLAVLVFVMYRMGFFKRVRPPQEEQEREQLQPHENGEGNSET
T2 sequence (P05106 27-788): as the sequence (P05106 27-788) above
Method in brief: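 Placental αvβ3 (100 ng/well) coated in TBS with 1 mM Ca, Mg, Mn, pH 7.4, then compound competed with 1 nM biotinylated vitronectin for 2 h at room temperature (top compound concentration 1.0×10^-4 M). Bound ligand detected with HRP anti-biotin/OPD at 450 nm; values normalized to maximum binding, four-parameter curve fit.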

SMILES	IC50 [1] [µM]	IC50 [2] [µM]
N=C(N)Nc1cccc(CCC(=O)c2cccc(/C=C/C(=O)O)c2)c1 [Example 92, 3-[3-[3-[3-[(aminoiminomethyl)amino]phenyl]-1-oxopropyl]phenyl]propenoic acid, trifluoroacetate salt]	4.01	0.0489
O=C(O)/C=C/c1cccc(C(=O)CCc2cccc(NC3=NCCCN3)c2)c1 [Example 93, 3-[3-[1-oxo-3-[3-[(1,4,5,6-tetrahydropyrimidin-2-yl)amino]phenyl]propyl]phenyl]propenoic acid, trifluoroacetate salt]	5.99	0.0061
O=C(O)/C=C/c1cccc(/C=C/C(=O)c2cccc(NC3=NCCCN3)c2)c1 [Example 94, 3-[3-[3-oxo-3-[3-[(1,4,5,6-tetrahydropyrimidin-2-yl)amino]phenyl]-1-propenyl]phenyl]propenoic acid, trifluoroacetate salt]	2.71	0.0113
O=C(O)/C=C/c1cccc(CCC(=O)c2cccc(NC3=NCCCN3)c2)c1 [Example 95, 3-[3-[3-oxo-3-[3-[(1,4,5,6-tetrahydropyrimidin-2-yl)amino]phenyl]propyl]phenyl]propenoic acid, trifluoroacetate salt hydrate]	11.8	0.0585
O=C(O)/C=C/c1ccc(/C=C/c2cccc(NC3=NCCCN3)c2)cc1 [Example 98, 3-[4-[2-[3-[(1,4,5,6-tetrahydropyrimidin-2-yl)amino]phenyl]ethenyl]phenyl]propenoic acid, trifluoroacetate salt]	0.222	0.00508
O=C(O)/C=C/c1ccc(/C=C/c2cccc(NC3=NCCN3)c2)cc1 [Example 99, 3-[4-[2-[3-[(4,5-dihydro-1H-imidazol-2-yl)amino]phenyl]ethenyl]phenyl]propenoic acid, trifluoroacetate salt]	0.722	0.0265
O=C(O)/C=C/c1ccc(/C=C/c2cccc(NC3=NCCCS3)c2)cc1 [Example 100, 3-[4-[2-[3-[(5,6-dihydro-4H-thiazin-2-yl)amino]phenyl]ethenyl]phenyl]propenoic acid, trifluoroacetate salt]	0.664	0.0306
O=C(O)/C=C/c1ccc(OCc2cccc(NC3=NCCCN3)c2)cc1 [Example 101, 3-[4-[[3-[(1,4,5,6-tetrahydropyrimidin-2-yl)amino]phenyl]methoxy]phenyl]propenoic acid, trifluoroacetate salt]	0.118	0.0426
N=C(N)Nc1cccc(-c2nc(-c3cccc(/C=C/C(=O)O)c3)co2)c1 [Example 102, 3-[3-[2-[3-[(aminoiminomethyl)amino]phenyl]oxazol-4-yl]phenyl]propenoic acid, trifluoroacetate salt]	4.48	1.94
N=C(N)Nc1cccc(-c2coc(-c3ccc(C=CC(=O)O)cc3)n2)c1 [Example 103, 3-[4-[4-[3-[(aminoiminomethyl)amino]phenyl]oxazol-2-yl]phenyl]propenoic acid]	0.0009	32.1
N=C(N)Nc1cccc(-c2ncc(-c3ccc(/C=C/C(=O)O)cc3)[nH]2)c1 [Example 104, 3-[4-[2-[3-[(aminoiminomethyl)amino]phenyl]-1H-imidazol-5-yl]phenyl]propenoic acid, trifluoroacetate salt]	0.0245	17.3
